Measured values reported in paper PMC10502144, “Anti-methicillin-resistant Staphylococcus aureus activity and safety evaluation of 14-O-[(5-ethoxycarbonyl-4,6-dimethylpyrimidine-2-yl) thioacetyl] mutilin (EDT)” (Scientific Reports, 2023).
Like-named read-outs stand apart in the source and are kept apart here. Marks after values point to notes of the source that are not given here.

Columns and labels:
[1] = test system: Salmonella Typhimurium TA1535
Method: (§1) Before the test, Salmonella Typhimurium (S. Typhimurium) TA97a, TA98, TA100, TA102, TA1535 and Escherichia coli WP2uvrA pKM101 (pKM101) were first checked for their genetic integrity, including biotin dependence, rfa marker (crystal violet), biotin, histidine dependence and presence of the plasmid pKM101 (ampicillin resistance) or pAQ1 (tetracycline resistance). […] The maximum concentration of EDT was also screened using a preliminary experiment.
(§2) DMSO (0.1 mL) was directly incorporated into 1.9 mL melted top agar as the vehicle control. […] Each strain (0.1 mL, 6–7 log10 CFU/mL) was added into 2 mL of top agar in which comprised 0.5 mL S9 (10%), serial concentrations of EDT (2000, 400, 80, 16 and 3.2 μg/plate), DMSO or control chemicals for testing with the S9. For testing without S9, 0.5 mL phosphate buffer saline (PBS, pH 7.4) replaced the S9 mix. Then, the obtained top agar was melted, poured onto the surface of […] and swirled to distribute the top agar to all surfaces of medium, followed by incubation at 37 °C for 48 h. The resultant colonies were counted manually as the number of revertant colonies per plate. The experiments were performed in triplicate and the results were expressed as the average ± SD.

[2] = test system: Salmonella Typhimurium TA102; test: Ames test, TA102; details: TA102, positive control 50 μg/plate, −S9
Method: as §1, §2

[3] = test system: Salmonella Typhimurium TA98; test: Ames test, TA98; details: TA98, positive control 50 μg/plate, −S9
Method: as §1, §2

[4] = test system: Salmonella Typhimurium TA97a; test: Ames test, TA97a; details: positive control 50 μg/plate, −S9
Method: as §1, §2

[5] = test system: Escherichia coli WP2uvrA pKM101; test: Ames test, pKM101
Method: as §1, §2

[6] = test system: Salmonella Typhimurium TA100; test: Ames test, TA100; type: cell-based; details: TA100, positive control 1μL/plate, −S9
Method: as §1, §2

Compound: Nc1ccc2cc3ccccc3cc2c1 [2-aminoanthracene, reference compound]
- number of revertant colonies per plate ([1]; TA1535, positive control 10 μg/plate, +S9): 740.00 ± 44.00^d

Compound: CN(C)c1ccc(N=NS(=O)(=O)[O-])cc1.[Na+] [diaxone, reference compound]
- number of revertant colonies per plate [2]: 522.00 ± 45.00^b
- number of revertant colonies per plate [3]: 972.00 ± 37.00^b
- number of revertant colonies per plate [4]: 2472.00 ± 94.00^b

Compound: [N-]=[N+]=[N-].[Na+] [sodium azide, reference compound]
- number of revertant colonies per plate ([1]; TA1535, positive control 1.5 μg/plate, −S9): 534.33 ± 38.67^e

Compound: methyl sulfonate [reference compound]
- number of revertant colonies per plate [5]: 644.00 ± 38.00^c
- number of revertant colonies per plate [6]: 1017.33 ± 39.67^c
